From ChEMBL document CHEMBL4130510, “Cytotoxic Dibohemamines D-F from a Streptomyces Species” (J Nat Prod, 2017)

Key:
A549 = assay: Cytotoxicity against human A549 cells by SRB assay; type: functional, cell-based
HepG2 = assay: Cytotoxicity against human HepG2 cells by SRB assay; type: functional, cell-based

SMILES	IC50 (A549)	IC50 (HepG2)
CC(C)=CC(=O)NC1=C(CC2=C(NC(=O)C=C(C)C)N3[C@@H](C)[C@H]4O[C@H]4[C@@]3(C)C2=O)C(=O)[C@]2(C)[C@H](O)C[C@H](C)N12	20.2 µM	7.3 µM
CC(C)=CC(=O)NC1=CC(=O)[C@]2(C)C[C@H](O)[C@H](C)N12 [BOHEMAMINE B]	502 µM	181 µM
CC(C)=CC(=O)NC1=C(CC2=C(NC(=O)C=C(C)C)N3[C@@H](C)[C@H]4O[C@H]4[C@@]3(C)C2=O)C(=O)[C@]2(C)C[C@H](O)[C@H](C)N12	1.1 µM	0.3 µM
CC(C)=CC(=O)NC1=CC(=O)[C@]2(C)[C@@H]3O[C@@H]3[C@H](C)N12 [BOHEMAMINE]	290 µM	29.7 µM
COc1cccc2c1C(=O)c1c(O)c3c(c(O)c1C2=O)C[C@@](O)(C(=O)CO)C[C@@H]3O[C@H]1C[C@H](N)[C@H](O)[C@H](C)O1 [DOXORUBICIN]	1.4 µM	–
CC(C)=CC(=O)NC1=C(CC2=C(NC(=O)C=C(C)C)N3[C@@H](C)[C@H]4O[C@H]4[C@@]3(C)C2=O)C(=O)[C@]2(C)[C@@H]3O[C@@H]3[C@H](C)N12	39.2 µM	10.8 µM
